Experimental data: a melting point compilation (Tetko et al.; mined from patent text by program, amines drawn as free bases though some values may be those of a salt)
Non-standard residues stand in square brackets, D forms with d. Residues, ends and D or L forms follow the SMILES beside them. ξ: configuration not given here. *: point of attachment. Boc = CC(C)(C)OC(=O)*; Dha = C=C(N)C(=O)O; ξP = O=C(O)C1CCCN1

| Compound | melting point [°C] |
| --- | --- |
| COC(=O)c1ccc(Cl)c(C)c1N | 72 to 74 |
| CC1(CNC(=O)C2CCCCC2)OCCc2c1[nH]c1ccccc21 (centres undefined) | 174 to 175 |
| O=C(OCc1ccccc1)N1CCC(C(=O)O)(c2ccccc2)CC1 | 142 to 144 |
| C#CCC1CC2C3CCC(=O)C3(C)CCC2C2(C)CCC(=O)C=C12 (centres undefined) | 145 to 146 |
| [N-]=[N+]=NCC1Cc2cc(Cl)cc(-c3ccsc3)c2O1 (centres undefined) | 50 to 52 |
| CCOCCOC(=O)C1=C(C)NC(C(OCC)OCC)=C(C(=O)OCC)C1c1cccc([N+](=O)[O-])c1 (centres undefined) | 99 to 100 |
| CCc1cc2c(-c3ccccc3Cl)c([N+](=O)[O-])cnc2s1 | 72 to 73 |
| CCOC1=NS(=O)(=O)C(C(=O)OC(C)(C)C)=C1N | 128 to 130 |
| CCCN(CCC)C(=O)C(CCC(=O)N(C)C)NC(=O)C=Cc1ccco1 (centres undefined) | 114 to 116 |
| O=C1N(N2CCOCC2)c2ccccc2C1(Cc1ccccn1)Cc1ccccn1 | 157 to 159 |
| O=C(Nc1ccc(F)nc1)C1CC1 | 116 to 117 |
| Brc1ccc2cc(OCc3ccccc3)c(C34CC5CC(CC(C5)C3)C4)cc2c1 | 150 to 151 |
| COc1ccc(N2CCN(Cc3cn(C)c4ncccc34)CC2)cc1 | 92 to 94 |
| CC(CS)C(=O)NC(CC(=O)O)C(=O)O (centres undefined) | 129 to 131 |
| CCC(=O)COc1cc(N)c(Cl)cc1C(=O)NCCN(CC)CC | 103 to 104 |
| Cc1c(C(N)=O)oc2nn(C)c(C)c12 | 148 to 150 |
| O=C1CCS(=O)(=O)C(CC(=O)c2ccccc2)C1 (centres undefined) | 158 to 159 |
| O=c1nc(N2CCOCC2)ccn1C1OC(CO)C(O)C1O (centres undefined) | 106 to 108 |
| CCOC(=O)/C=C/c1cc(OC)cc(OC)c1C#N | 119 to 122 |
| COc1ccc(N2CCN(c3c(C)c(C)c4c(c3-c3ccc(N(C)C)cc3)CC(C)(C)O4)CC2)cc1 | 177 to 179 |
| Cc1ccc(C(C)(C)Cl)cc1C | -20 to -19 |
| N#CN=C1NCCN1Cc1ccccc1 | 120 to 122 |
| O=C(O)c1cccc([N+](=O)[O-])c1O | 123 |

| Compound | melting point [°C] |
| --- | --- |
| Cc1ncccc1Oc1ccc(NC(=O)Nc2ccc3[nH]c4c(c3c2)CCN(C(=O)OC(C)(C)C)CC4)cn1 | 173 to 175 |
| CC(=O)Cn1nc(C)oc1=O | 55 to 58 |
| CCNC(=O)c1ccncc1 | 93 to 95 |
| COc1cc2c(Nc3ccc(Oc4cccnc4)cc3)c(C#N)cnc2cc1F | 235 to 236 |
| COc1cc(C2=C(c3cn(CCCNC(=O)C(N)CO)c4ccccc34)C(=O)NC2=O)cc(OC)c1OC (centres undefined) | 112 to 114 |
| COc1cc2[nH]c(N(C)Cc3cccc(N)c3)nc(=O)c2c(C)c1OC | 268 to 270 |
| N#Cc1c[nH]c2c(NS(=O)(=O)c3ccc(N)nc3)cccc12 | > 300 |
| Cc1c(F)cc2c(=O)c(C(=O)O)cn(CCF)c2c1F | 215 to 217 |
| CCc1nc2c(N)nc3cc(CCCNC(C)=O)ccc3c2n1CC1CCOCC1 | 209 to 211 |
| Cc1nn(C)c(NC(=O)Nc2ccccc2)c1C1=CCCCC1 | 203 |
| C=CCSC(Cc1ccc(Cl)cc1Cl)n1ccnc1 (centres undefined) | 97 to 102 |
| CCOC(=O)c1onc(O)c1C | 133 to 134 |
| CNc1nc(Cl)nc2c1ncn2C1OC(CO)C(O)C1O (centres undefined) | 224 to 225 |
| COc1cc2nc(N3CCN(c4nccs4)CC3)nc(N)c2cc1OC | 220 to 221 |
| CC(NC(Nc1ccc(Cl)cc1)=C(C#N)S(C)(=O)=O)C(C)(C)C (centres undefined) | 160 to 162 |
| C=C(NC(=O)C1CCCN1C(=O)OC(C)(C)C)C(=O)O (centres undefined) (Boc-[ξP]-[Dha]-OH) | 154 to 156 |
| O=c1n(-c2ccc(Cl)cc2Cl)nc2n1CCCC2 | 100 to 104 |
| CS(=O)(=O)c1ccc(N2C[C@H](COc3ccon3)OC2=O)cc1 | 180 |
| CC(C#N)(CCC(=O)O)SC(=S)c1ccccc1 (centres undefined) | 97 to 99 |
| N#Cc1c(F)cc(OCCOc2ccc3ccccc3c2)cc1F | 148 to 149 |
| COC(=O)CCCc1ccc(S(=O)(=O)Nc2ccccc2)cn1 | 79 to 80 |
| CCOC(=O)C(=O)NC(=O)N1CC1C#N (centres undefined) | 104 to 106 |
| CCCCCCC[C@@H](O)[C@@H](NCc1ccccc1)C(=O)O | 197 to 199 |

| Compound | melting point [°C] |
| --- | --- |
| COC(=O)[C@H]1CC[C@H](NC(=O)c2cc(-c3ccc(C#N)cc3)nnc2N2CCOCC2)CC1 | 269 to 271 |
| O=c1c2c(nc3ccc(Cl)cn13)CCC2 | 146 to 147 |
| COc1ccc2c(c1)NC(=O)C(Cl)CC2 (centres undefined) | 162 to 163 |
| COc1ccc2c(c1Cl)S(=O)(=O)c1ccccc1N2C | 244 |
| CCCO[C@@H]1C[C@@H](C(=O)O)N(C(C)=O)C1 | 148 to 153 |
| CCn1nc(C(=O)NC2CN(C)CCN(Cc3ccccc3)C2)c2ccccc21 (centres undefined) | 135 to 137 |
| N#CC1(CCCCCCCCCCCCC2(C#N)CC2)CC1 | 45 to 46.9 |
| CCN(CC)C(=O)Nc1ccc2c(c1Cl)C(c1ccccc1F)=NCC(=O)N2C | 190 to 191 |
| COCCOc1cc2ncnc(Nc3cc(O)c(Cl)cc3F)c2cc1OC | > 250 |
| CCCOc1ccc2c(c1)[C@@H](c1ccc(OC)cc1OCCO)[C@@H](C(=O)OC)[C@H]2c1ccc2c(c1)OCO2 (racemic) | 165 to 168 |
| CCCc1nc2cnccc2s1 | 44 to 47 |
| CCCCCCCCCCNC(=O)c1ccc(N)cc1 | 117 to 119 |
| CC1(C)OC(=O)C(COS(C)(=O)=O)(c2ccc(Cl)cc2Cl)O1 (centres undefined) | 98 to 100 |
| Cc1oc(=O)oc1CN1CCN(c2cc3c(cc2F)c(=O)c(C(=O)O)c2n3C(c3ccccc3)S2)CC1 (centres undefined) | 201 to 202 |
| O=C(O)COc1ccc(CCc2ccc(N3CCNCC3)cc2)cc1 | > 250 |
| CC(C)(C)c1cccc(S(=O)(=O)Nc2ncc(C(F)(F)F)cc2I)c1 | 135 |
| CCn1cc(C(=O)O)c(=O)c2cc(F)c(N3CC4CCCC3CN4)c(F)c21 (centres undefined) | 245 to 250 |
| C=CCNc1nc(N(CC=C)CC=C)nc2ccc(Cl)cc12 | 73 to 74 |
| Cc1ccc(C)n1-c1cc2[nH]c(=O)c(=O)n(CC(=O)O)c2cc1Cl | > 265 |
| CCC(=O)Nc1ccnn1-c1c(Cl)cc(Cl)cc1Cl | 125 |
| COc1cccc(-n2c(CCl)nc3ccccc3c2=O)c1 | 180 to 182 |

Further lines, results first:

| melting point [°C] | Compound |
| --- | --- |
| 173 to 175 | CCOC(=O)C1=C(C)NC(=S)N(C(=O)c2ccccc2)C1c1cccc([N+](=O)[O-])c1 (centres undefined) |
| 124 to 125 | OCc1cccc2cc3ccccc3cc12 |
| 153 to 155 | COC(=O)N(Cc1nc(-c2ccccc2)c(-c2ccccc2)o1)c1cccc(OCC(=O)O)c1 |
| 220 to 221 | O=C(O)c1ccccc1Oc1cc(Cl)c(Cl)cc1NS(=O)(=O)c1ccc(Cl)cc1 |
| 132 to 134 | O=C(O)c1nc(I)c2cc(Cc3ccc(F)cc3)cnc2c1OCc1ccccc1 |
| 153 to 155 | COc1ccc(-c2nc3cccnc3n2CC(=O)N2CCCCC2)cc1 |
| 106 to 108 | COC(=O)C[C@H](O)C[C@H](O)CCc1c(-c2ccc(F)cc2)c(-c2ccc(F)cc2)c(C(=O)Nc2ccc(S(N)(=O)=O)cc2)n1C(C)C |
| 161 to 168 | N#CC1=Nc2cc(Cl)ccc2Oc2ccccc21 |
| 154 to 156 | CCc1cc(-c2ccc(OC)cc2)n(-c2ccc(S(N)(=O)=O)cc2)c1 |
| 175 to 177 | COC(=O)c1ccc2cc(CCc3cc4c(C(=O)OC)cccc4o3)oc2c1 |
| 179 to 180 | Cc1cc(Br)ccc1S(N)(=O)=O |
| 119 to 121 | O=C(CC(CNS(=O)(=O)c1ccc(Oc2ccccc2)cc1)c1ccc(Cl)cc1)Nc1ccc(C(=O)O)cc1 (centres undefined) |
| 124 to 128 | Cc1cn(C)c(C)c1-c1ccnc(Nc2ccc(F)cc2)n1 |
| 117 to 119 | COc1ccc(S(=O)(=O)C(CC=C(C)C)(Cc2cccnc2)C(=O)O)cc1 (centres undefined) |
| 210 | Cc1c(-c2ccc3oc(=O)n(C)c3c2)nc2c(OCc3ccccc3)cccn12 |
| 178 | Oc1ccc(Oc2ncc(Br)cn2)cc1 |
| 102 to 103 | Cc1cccc(-c2nccc(NN)n2)c1 |
| 220 to 221 | O=C(N[C@H](Cc1ccc(F)cc1)[C@@H](O)c1ccc(C(F)(F)F)cc1)C1CCCCC1 (racemic) |
| 88 | COc1ccc2ccccc2c1CCCC(=O)O |

| melting point [°C] | Compound |
| --- | --- |
| 140 | CCCc1nn(C)c(C(N)=O)c1C(=O)c1ccc(N)cc1 |
| 210 to 212 | CS(=O)(=O)c1ccc(-c2cnn(-c3cccc(Br)c3)c(=O)c2-c2ccc(F)cc2)cc1 |
| 110 to 111 | Fc1ccc(Cc2ccccc2N2CCN(c3ccncc3)CC2)cc1 |
| 122 | COc1ccc(-c2ncn(C)c2-c2ccc(OC)cc2)cc1 |
| 78 to 79 | O=Cc1cc(Cc2ccccc2)ccc1O |
| 106 to 108 | COC(=O)C(=Cc1cc(OC)cc(OC)c1)c1ccc(O)cc1 |
| 106 | CCCCNC(=O)c1ccc(F)c2c1CC(N(CCCc1c[nH]c3ccc(F)cc13)C1CCC1)CO2 (centres undefined) |
| 125 to 126 | CCCc1c(C(=O)C(C)C)c2ccc(C(N)=O)cc2n1C(=O)c1ccccc1Cl |
| 172 to 173 | CC(C(O)c1ccc(OC(=O)c2ccc(CN3CCOCC3)cc2)cc1)N1CCC(O)(c2ccccc2)CC1 (centres undefined) |
| 100 to 102 | CN(C)CCC=C1c2ccccc2COc2ccc(CCO)cc21 |
| 77 to 79 | CC(C(=O)O)c1ccc(-c2ccc(F)cc2Br)cc1 (centres undefined) |
| 231 | Cc1cc(-c2cc(C(F)F)n3ncc(-c4nc(-c5ccc(N)nc5)no4)c3n2)ccc1C(F)(F)F |
| 103 to 104 | Cc1ccccc1SC(NC=O)c1sccc1C (centres undefined) |
| 150 to 152 | CCOC(=O)Cc1ccc(C(=O)c2ccccc2)cc1N |
| 84 to 85 | CN(C)CCc1cccc(OCCN2C(=O)c3ccccc3C2=O)c1 |
| 248 to 251 | O=C1CCc2cc(NCC(=O)N3CCC(Oc4ccc(Cl)cc4)CC3)ccc2N1 |
| 230 | COc1ccc2cc(O)c(C(=O)Nc3ccccc3)cc2c1 |
| 156 to 157 | CCCN(CCC)C(=O)Cn1c(-c2ccc(Cl)cc2)nc2cccnc21 |
